Test results taken from patent publication US20160095843A1, “PYRAZOLOPYRROLIDINE DERIVATIVES AND THEIR USE IN THE TREATMENT OF DISEASE” (NOVARTIS AG, priority 2013, published 2016).
Where two headings read alike, the source gives them in different places.

Experiments:
BRD2 = biological target: T1, BRD2 (Homo sapiens, UniProt P25440); experiment: TR-FRET in-vitro binding assay for BRD2; settings: Biochemical IC50 values, His-Brd2(60-472)
T1 construct: 45 nM His-Brd2(60-472) or 45 nM His-Brd3(20-477)
T1 sequence (P25440 60-472): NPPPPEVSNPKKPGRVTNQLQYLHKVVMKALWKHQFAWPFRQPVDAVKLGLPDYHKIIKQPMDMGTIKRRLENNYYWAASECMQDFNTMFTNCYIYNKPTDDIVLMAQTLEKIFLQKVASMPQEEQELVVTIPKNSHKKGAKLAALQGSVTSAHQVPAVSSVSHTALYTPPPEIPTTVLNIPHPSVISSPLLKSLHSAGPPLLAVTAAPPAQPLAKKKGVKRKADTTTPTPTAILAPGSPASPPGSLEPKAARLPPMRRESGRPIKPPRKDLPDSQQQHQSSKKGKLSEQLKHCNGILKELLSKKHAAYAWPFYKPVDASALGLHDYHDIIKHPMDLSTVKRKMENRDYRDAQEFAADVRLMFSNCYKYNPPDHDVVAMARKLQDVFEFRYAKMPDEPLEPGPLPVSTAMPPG
Method: (§1) TR-FRET In-Vitro Binding Assays for BRD2, BRD3, and BRD4:
(§2) All assays were performed in 384-well microtiter plates. Each assay plate contained 8-point serial dilutions for 40 test compounds, plus 16 high- and 16 low controls. Liquid handling and incubation steps were done on an Innovadyne Nanodrop Express equipped with a robotic arm (Thermo CatX, Perkin Elmer/Caliper Twister II) and an incubator (Liconic STX40, Thermo Cytomat 2C450). The assay plates were prepared by addition of 50n1 per well of compound solution in 90% DMSO HummingBird nanodispenser (Zinsser Analytic). […] Reactions were incubated at 30° C. for 35 minutes. […] After 35 minutes incubation at 30° C., plates were measured in a Perkin Elmer EnVision multilabel reader.
(§3) Preparation of Compound Dilutions
(§4) Test compounds were dissolved in DMSO (10 mM) and transferred into 1.4 mL flat bottom or V-shaped Matrix tubes carrying a unique 2D matrix. The stock solutions were stored at […] if not used immediately. For the test procedure the vials were defrosted and identified by a scanner whereby a working sheet was generated that guided the subsequent working steps. Compound dilutions were made in 96 well plates. This format enabled the assay of maximally 40 individual test compounds at 8 concentrations (single points) including 4 reference compounds, if desired (known BET inhibitors from the prior art, for this and other assays of the type disclosed herein). The dilution protocol included the production of “pre-dilution plates”, “master plates” and “assay plates”.
(§5) Polypropylene 96-well plates were used as pre-dilution plates. […] All dilution steps were done on a HamiltonSTAR robot.
(§6) These plates were used directly for the assay which was performed in a total volume of 13.55 μL.

BRD3 = biological target: T2, BRD3 (Homo sapiens, UniProt Q15059); experiment: TR-FRET in-vitro binding assay for BRD3; settings: Biochemical IC50 values, His-Brd3(20-477)
T2 construct: 45 nM His-Brd3(20-477) or 45 nM His-Brd4(44-477)
T2 sequence (Q15059 20-477): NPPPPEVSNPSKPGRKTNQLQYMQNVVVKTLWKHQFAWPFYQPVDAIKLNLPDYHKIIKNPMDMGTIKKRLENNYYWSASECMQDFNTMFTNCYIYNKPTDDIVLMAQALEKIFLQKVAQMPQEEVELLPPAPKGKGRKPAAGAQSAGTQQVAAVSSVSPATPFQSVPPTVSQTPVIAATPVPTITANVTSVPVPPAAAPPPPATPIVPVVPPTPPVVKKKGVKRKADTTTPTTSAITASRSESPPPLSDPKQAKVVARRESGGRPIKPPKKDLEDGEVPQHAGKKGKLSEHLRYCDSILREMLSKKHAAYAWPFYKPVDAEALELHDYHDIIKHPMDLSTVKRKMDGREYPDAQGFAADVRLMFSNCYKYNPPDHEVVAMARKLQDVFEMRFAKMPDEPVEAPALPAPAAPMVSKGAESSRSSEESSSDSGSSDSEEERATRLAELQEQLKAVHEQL
Method: as §1, §2, §3, §4, §5, §6

CREBBP = biological target: T3, CREBBP (Homo sapiens, UniProt Q92793); experiment: AlphaScreen in-vitro binding assay for CREBBP; settings: Biochemical IC50 values, His-CREBBP(1081-1197)
T3 construct: 324 nM His-CREBBP(1081-1197) (custom production at Viva Biotech Ltd.)
T3 sequence (Q92793 1081-1197): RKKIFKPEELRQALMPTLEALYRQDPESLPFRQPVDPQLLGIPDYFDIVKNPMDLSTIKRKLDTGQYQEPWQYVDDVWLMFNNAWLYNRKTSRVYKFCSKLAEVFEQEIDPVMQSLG
Method: AlphaScreen In-Vitro Binding Assay for CREBBP
In order to assess bromodomain selectivity, we set up a binding assay using the bromodomain encoded by the CREBBP gene. […] Reactions were incubated at 30° C. for 35 minutes. Subsequently 4.5 μL per well detection mix (50 mM HEPES, pH 7.5, 0.005% Tween20, 0.02% BSA, 150 mM NaCl, 45 μg/ml Ni-chelate acceptor beads, 45 μg/mL streptavidin-donor beads) (Perkin Elmer)) were added. After 60 minutes incubation at room temperature, plates were measured in a Perkin Elmer EnVision multilabel reader. IC50 values were determined from percent inhibition values at different compound concentrations by non-linear regression analysis.
as §3
Test compounds were dissolved in DMSO (10 mM) and transferred into 1.4 mL flat bottom or V-shaped Matrix tubes carrying a unique 2D matrix. The stock solutions were stored at […] if not used immediately. For the test procedure the vials were defrosted and identified by a scanner whereby a working sheet was generated that guided the subsequent working steps. Compound dilutions were made in 96 well plates. This format enabled the assay of maximally 40 individual test compounds at 8 concentrations (single points) including 4 reference compounds, if desired (known BET inhibitors from the prior art, for this and other assays of the type disclosed herein). […]

THP-1 cells = experiment: Cell growth inhibition assay (CellTiter-Glo), THP-1; assay type: cell-based; settings: Homo sapiens
How it was run: (§7)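 Cellular ATP (CellTiter-Glo luminescence) measured after 4 days at 37° C., 5% CO2 of compound exposure, top concentration 10 μM in 3-fold steps, 0.1% DMSO. Readings corrected for no-cell background and a day-0 plate, normalised to vehicle and medium wells; half-maximal and total growth inhibition from four-parameter curves.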

[1] = biological target: T4, nuclear BRD4-NUT foci in HCC2494 NUT midline carcinoma cells (Homo sapiens, UniProt O60885+Q86Y26); experiment: Nut-foci formation assay; assay type: cell-based; settings: 24 hours, NUT-foci per nucleus, read-out: HCS Brd4-NUT IC50
T4 construct: HCC2494 NUT midline carcinoma cells (expressing BRD4-NUT-fusion)
Method: HCC2494 NUT midline carcinoma cells (expressing BRD4-NUT-fusion) were obtained from the University of Texas Southwestern and cultured in RPMI-1640 medium containing 10% Foetal Calf Serum at 37° C. in a humidified 5% CO2 incubator.
Compound-mediated inhibition of BRD4 activity was monitored by quantification of the number and intensity of nuclear BRD4-NUT foci using automated immunofluorescence microscopy. Briefly, 5000 cells in 20 μL fresh medium were seeded into Poly-D-Lysine-precoated 384-well plates and incubated overnight at 37° C. and 5% CO2, followed by addition of 5 μl medium containing compound dilutions at 5-fold their final intended concentration. Dose-response effects were assessed by 3-fold serial dilutions of the test compound, starting at 10 μM. […] Assay plates were imaged using the appropriate filter sets on the Cellomics VTi automated fluorescence microscopy platform (ThermoFisher Scientific) and the population average of the number of NUT-foci per nucleus is quantified using the Cellomics Spot Detection BioApplication image analysis algorithm (ThermoFisher Scientific). The effect of a particular test compound concentration on NUT-foci number and intensity is expressed as percentage of the value obtained for cells treated with vehicle only (DMSO, 0.1% final concentration), which was set as 100. […]

MV-4-11 cells = experiment: Cell growth inhibition assay (CellTiter-Glo), MV-4-11; assay type: cell-based; settings: Homo sapiens, MV4-11
How it was run: as §7

K-562 cells = experiment: Cell growth inhibition assay (CellTiter-Glo), K-562; assay type: cell-based, human
How it was run: as §7

BRD4 = biological target: T5, BRD4 (Homo sapiens, UniProt O60885); experiment: TR-FRET in-vitro binding assay for BRD4; settings: Biochemical IC50 values, His-Brd4(44-477)
T5 construct: 45 nM His-Brd4(44-477) all proteins produced in-house
Method: as §1, §2, §3, §4, §5, §6

IC50 (BRD2) [µM] | IC50 (BRD3) [µM] | GI50 (THP-1 cells) [nM] | GI50 (MV-4-11 cells) [nM] | GI50 (K-562 cells; Homo sapiens, K562) [nM] | IC50 (BRD4) [µM] | Compound | further results
– | > 37 | 3160 | 1640 | > 10000 | – | Cc1nn(C2CC2)c2c1[C@H](c1ccc(Cl)cc1)N(c1cc(C)c3nnc(C)n3c1)C2=O [Example 118, (S)-4-(4-chlorophenyl)-1-cyclopropyl-5-(3,8-dimethyl-[1,2,4]triazolo[4,3-a]pyridin-6-yl)-3-methyl-4,5-dihydropyrrolo-[3,4-c]pyrazol-6(1H)-one] | IC50 (CREBBP): > 37 µM; IC (TGI) (K-562 cells): >10000 nM
– | – | 30.3 | 23.9 | 127 | – | Cc1nn(C2CC2)c2c1C(c1ccc(Cl)cc1)N(c1cc(C)c3nnc(C(F)F)n3n1)C2=O (centres unmarked) [Example 195, 4-(4-chlorophenyl)-1-cyclopropyl-5-(3-(difluoromethyl)-8-methyl-[1,2,4]triazolo[4,3-b]pyridazin-6-yl)-3-methyl-4,5-dihydropyrrolo-[3,4-c]pyrazol-6(1H)-one] | –
– | – | 204 | 144 | 921 | – | Cc1[nH]nc2c1C(c1ccc(Cl)cc1F)N(c1cc(C)c(=O)n(C)c1)C2=O (centres unmarked) [Example 196, 4-(4-chloro-2-fluorophenyl)-5-(1,5-dimethyl-6-oxo-1,6-dihydropyridin-3-yl)-3-methyl-4,5-dihydropyrrolo-[3,4-c]pyrazol-6(2H)-one] | –

Further lines, the compound ahead of its results:

Compound | IC50 (BRD2) [µM] | IC50 (BRD3) [µM] | GI50 (THP-1 cells) [nM] | GI50 (MV-4-11 cells) [nM] | GI50 (K-562 cells; Homo sapiens, K562) [nM] | IC50 (BRD4) [µM] | further results
Cc1nn(C2CC2)c2c1C(c1ccc(Cl)cc1)N(c1cc(C)c(=O)n(C)c1)C2=O (racemic) [Example 23, 4-(4-chlorophenyl)-1-cyclopropyl-5-(1,5-dimethyl-6-oxo-1,6-dihydropyridin-3-yl)-3-methyl-4,5-dihydropyrrolo-[3,4-c]pyrazol-6(1H)-one] | 0.099 | 0.074 | – | – | – | – | IC50 (CREBBP): 3.9 µM
CNc1cc(N2C(=O)c3c(c(C)nn3C3CC3)C2c2ccc(Cl)cc2)nn2c(C)nnc12 (racemic) [Example 113, 4-(4-chlorophenyl)-1-cyclopropyl-3-methyl-5-(3-methyl-8-(methylamino)-[1,2,4]triazolo[4,3-b]pyridazin-6-yl)-4,5-dihydropyrrolo-[3,4-c]pyrazol-6(1H)-one] | – | – | 112 | 84 | 511 | – | IC (TGI) (THP-1 cells): 234 nM; IC50 [1]: 151 nM; IC (TGI) (MV-4-11 cells): 127 nM; IC (TGI) (K-562 cells; Homo sapiens, K562): > 10000 nM
Cc1cc(N2C(=O)c3nn(C)cc3[C@@H]2c2ccc(Cl)cc2)cn(C)c1=O [Example 15, (S)-4-(4-chlorophenyl)-5-(1,5-dimethyl-6-oxo-1,6-dihydropyridin-3-yl)-2-methyl-4,5-dihydropyrrolo[3,4-c]pyrazol-6(2H)-one] | > 6.7 | – | – | – | – | > 6.7 | –
Cc1cc(N2C(=O)c3nn(C4CC4)c(C)c3[C@@H]2c2ccc(Cl)cc2)cn(C)c1=O [Example 22, (S)-4-(4-chlorophenyl)-2-cyclopropyl-5-(1,5-dimethyl-6-oxo-1,6-dihydropyridin-3-yl)-3-methyl-4,5-dihydropyrrolo[3,4-c]pyrazol-6(2H)-one] | – | > 6.7 | – | – | – | > 6.7 | –
Cc1nn(C2CC2)c2c1[C@H](c1ccc(Cl)cc1)N(c1cc(Cl)c(=O)n(C)c1)C2=O [Example 50, (S)-5-(5-chloro-1-methyl-6-oxo-1,6-dihydropyridin-3-yl)-4-(4-chlorophenyl)-1-cyclopropyl-3-methyl-4,5-dihydropyrrolo[3,4-c]pyrazol-6(1H)-one] | – | > 6.7 | – | – | – | > 6.7 | –
COc1ncc(-n2nc3c(c2C(C)C)[C@H](c2ccc(Cl)cc2)N(c2cc(C)c4onc(C)c4c2)C3=O)c(OC)n1 [Example 61, (S)-4-(4-chlorophenyl)-2-(2,4-dimethoxypyrimidin-5-yl)-5-(3,7-dimethylbenzo[d]isoxazol-5-yl)-3-isopropyl-4,5-dihydropyrrolo-[3,4-c]pyrazol-6(2H)-one] | > 37 | – | 2430 | 948 | > 10000 | – | –
